In PubChem BioAssay AID2060512 (Molecular Pharmacology Branch, DTP, NCI, 2025):
Values joined by “and” are separate entries in the source; they are usually repeats but may differ in a detail not shown here. Identical values can stand only once.

Tested on: 186277-243-T-J2-PDC complex spheroid viability
Experiment: Anticancer human tumor 186277-243-T-J2-PDC patient-derived colon adenocarcinoma cell line growth inhibition [GQUAD]
Details: for viability, T/C: stronger effect = lower value
Source text: DNA G-quadruplex Stabilizer Agents in Combinations in Complex Spheroids
A high-throughput screen of multi-cell type tumor spheroids was designed to identify active combinations of DNA G-quadruplex stabilizer agents and targeted small molecules. Complex spheroids include a stromal component modeled by human endothelial cells (HUVEC) and fibroblasts modeled by human mesenchymal stem cells (MSCs). The concentration ranges selected for each drug and investigational agent were based upon clinically achievable concentrations if the clinical Cmax of the agent was known.
Compounds. The drugs and investigational agents: pidnarulex (CX-5461; NSC782164), APTO-253 (NSC789042), BRACO-19 (NSC847499), peposertib (NSC802822), ceralasertib (NSC780249), elimusertib (NSC800525), camonsertib (NSC841442), AZD-1390 (NSC803789), olaparib (NSC753686), talazoparib (NSC767125), ART-558 (NSC835418), sotorasib (NSC818433), MRTX-1133 (NSC836407), SN-38 (NSC673596), topotecan (NSC609699), etoposide (NSC141540), doxorubicin (NSC123127), gemcitabine (NSC613327), 5-fluorouracil (NSC19893), paclitaxel (NSC125973), vemurafenib (NSC761431), panobinostat (NSC761190), R-306465 (JNJ-16241199; NSC773264), adavosertib (NSC754352), TP-3654 (NSC805149), carboplatin (NSC241240), KSQ-4279 (NSC840948), and staurosporine (NSC755774) were obtained from the National Cancer Institute (NCI) Developmental Therapeutics Program Chemical Repository (34). The FDA-approved anticancer drug set is available from the NCI Developmental Therapeutics Program. […] The stock solutions were prepared in dimethyl sulfoxide (DMSO, Sigma-Aldrich, St. Louis, MO, cat. D2650) at 800-fold the tested concentration and stored at -70 degrees C prior to their use. All drugs and investigational agents were tested over a range starting from a high concentration at or near the clinical Cmax and decreasing in half-log increments. If the clinical Cmax for an agent had not been determined, the highest concentration tested was 10 microM.
2.3 Cell Culture. All cells were maintained in an incubator at 37 degrees C and 5% CO2 with 95% humidity. The PDC lines were cultured according to standard operating procedures established by the NCI PDMR. All PDCs were thawed and cultured in Matrigel-coated flasks prepared with a working solution of 1X Ham's F-12 nutrient mix, without supplementation (Invitrogen, cat. 11765054), 100 U/mL penicillin-streptomycin (Invitrogen, cat. 15140122), and 2.5% Matrigel (Corning Inc., cat. 354248) for the first three passages. The 857933-349-R-J2-PDC line was cultured in 6C/Colon 1B media, which includes advanced DMEM/F-12 (Thermo Fisher Scientific, cat. 12634028), 10 mM HEPES (Thermo Fisher Scientific, cat. 15630080), 1X GlutaMAX supplement (Thermo Fisher Scientific, cat. 35050061), 0.1 mg/mL primocin (InvivoGen, cat. ant-pm-2), 10% defined fetal bovine serum, heat inactivated (HyClone Laboratories Inc., cat. SH30070.03HI), 50% L-WRN conditioned media (ATCC, cat. CRL-3276), 1.25 mM N-Acetyl-L-cysteine (Sigma-Aldrich, cat. A9165), 10 mM nicotinamide (Sigma-Aldrich, cat. N0636), 1X B-27 supplement (Thermo Fisher Scientific, cat. 17504044), 1X N-2 supplement (Thermo Fisher Scientific, cat. 17502048), 10 microM Y-27632 dihydrochloride (Tocris Bioscience, cat. 1254), and 50 ng/mL human EGF recombinant protein (Thermo Fisher Scientific, cat. PHG0311). The 485176-168-R4-J1-PDC line was cultured in Panc media, which includes all 6C/Colon 1B media components plus 100 ng/mL human FGF-10 (Thermo Fisher Scientific, cat. 100-26), 500 nM SB-431542 (Selleckchem, cat. S1067), and gastrin (Tocris, cat. 3006).
[…]
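Further: spheroids exposed to drugs for 7 days.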
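Wherever viability, T/C is given: 100% = DMSO vehicle control viability.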

Row | SMILES | viability, T/C (compound 0.0316 µM) | viability, T/C (compound 0.1 µM) | viability, T/C (compound 0.316 µM) | viability, T/C (compound 1 µM) | viability, T/C (compound 3.16 µM) | viability, T/C (compound 10 µM) | IC50 (curve of compound) | viability, T/C (compound 0.000999 µM) | viability, T/C (compound 0.00316 µM) | viability, T/C (compound 0.00999 µM) | viability, T/C (compound 0.0999 µM) | IC50 (compound alone, run of 04/22/2024)
1 | C=CC(=O)N1CCN(c2nc(=O)n(-c3c(C)ccnc3C(C)C)c3nc(-c4c(O)cccc4F)c(F)cc23)C(C)C1 (stereo not given) | 91.3% and 93.7% and 101% | 82.3% and 102% and 89.8% | 94% and 91.1% and 104% | 108% and 96.1% and 91.2% | 92.6% and 117% and 98% | 87.6% and 78.8% and 95.7% | > 10000 nM | – | – | – | – | –
2 | CCc1c2c(nc3ccc(O)cc13)-c1cc3c(c(=O)n1C2)COC(=O)[C@]3(O)CC | 30.8% and 29.4% and 34.3% | – | 18.9% and 11.2% and 16.2% | – | – | – | 9.82 nM and 7.08 nM and 7.82 nM | 88.2% and 83.6% and 97.2% | 72.1% and 57.3% and 65.1% | 50.2% and 50.4% and 45.2% | 21.3% and 14.5% and 21.4% | –
3 | CN(C)c1ccc(Nc2c3ccc(NC(=O)CCN4CCCC4)cc3nc3cc(NC(=O)CCN4CCCC4)ccc23)cc1 | – | 97.8% [middle of 12 runs] | 101% [middle of 12 runs] | 101% [middle of 12 runs] | – | 99.7% [middle of 12 runs] | – | – | – | – | – | > 10000 nM
4 | O=c1[nH]cc(F)c(=O)[nH]1 | 94.6% and 93.4% and 110% | 94.9% and 95.8% and 93.8% | 104% and 108% and 112% | 97.6% and 114% and 107% | 62.5% and 75.2% and 60.1% | 39.6% and 52.2% and 50.6% | 5940 nM and > 10000 nM | – | – | – | – | –
5 | Cc1cccc(N(C)C(=O)C2C(O)CCN2c2nc(C)cc(C(F)(F)F)c2C#N)c1 (stereo not given) | 109% and 93.9% and 95.1% | 91% and 94.3% and 102% | 95.7% and 97.1% and 115% | 102% and 99.7% and 99.6% | 116% and 97.7% and 102% | 102% and 104% and 91.5% | > 10000 nM | – | – | – | – | –
6 | Cn1ncnc1[C@H]1c2n[nH]c(=O)c3cc(F)cc(c23)N[C@@H]1c1ccc(F)cc1 | 111% and 110% and 97.4% | – | 92.4% and 86.5% and 90.8% | – | – | – | > 316 nM | 99.3% and 96.1% and 115% | 93.5% and 96.6% and 91% | 94.1% and 100% and 98.4% | 87.5% and 91.4% and 106% | –
7 | O=C(c1cc(Cc2n[nH]c(=O)c3ccccc23)ccc1F)N1CCN(C(=O)C2CC2)CC1 | 102% and 105% and 100% | 108% (2×) and 94.6% | 96.4% and 112% and 87.3% | 94.3% and 104% and 77.3% | 93.3% and 92% and 82.2% | 62.3% and 64.2% and 66.5% | > 10000 nM | – | – | – | – | –
8 | CC1COCCN1c1cc(C2(O)CC3CCC(C2)O3)c2cnn(-c3ccn[nH]3)c2n1 (stereo not given) | 64.6% and 66.1% and 52.2% | 13.1% and 14.8% and 10% | 7.61% and 5.43% and 6.02% | 4.72% and 5.45% and 4.44% | 4.67% and 5.36% and 4.31% | 3.02% and 2.97% and 3.42% | 43.7 nM and 45.3 nM and 33.4 nM | – | – | – | – | –
9 | COc1cccc2c1C(=O)c1c(O)c3c(c(O)c1C2=O)CC(O)(C(=O)CO)CC3OC1CC(N)C(O)C(C)O1 (stereo not given) | 108% and 97.9% and 88.6% | 117% and 91.2% and 90.2% | 83.2% and 57.1% and 66.7% | 29.7% and 15.8% and 22.8% | 4.47% and 0.22% and 0.3% | 0.23% and 0.19% and 0.13% | 649 nM and 388 nM and 494 nM | – | – | – | – | –
10 | CC(C)(O)C1CCC(Nc2ccc3ncc(-c4cccc(C(F)(F)F)c4)n3n2)CC1 (stereo not given) | 82.3% and 96.5% and 103% | 106% and 97.7% and 92.2% | 101% and 99.8% and 99.6% | 83.7% and 85.5% and 105% | 55.3% and 49% and 56.7% | 46.4% and 46% and 50% | 6250 nM and 3040 nM and > 10000 nM | – | – | – | – | –
11 | CC(C)n1c(=O)n(C)c2cnc3cc(F)c(-c4ccc(OCCCN5CCCCC5)nc4)cc3c21 | 99.3% and 98.7% and 80.8% | 90.1% and 89.8% and 84.8% | 106% and 104% and 82.1% | 96.6% and 119% and 84.2% | 104% and 106% and 97.2% | 89.4% and 101% and 76% | > 10000 nM | – | – | – | – | –
